Experimental data reported in ChEMBL document CHEMBL6121040, “Synthesis and biological assessment of BUB1B inhibitors for the treatment of clear cell renal cell carcinoma” (Eur J Med Chem, 2025).

The molecules below were run on CAKI-1 (assay: Cytotoxicity against human CAKI-1 cells assessed as cell viability at 10 uM incubated for 1 day by MTT assay relative to control). Conditions: CAKI-1, 24 h, read-out: Activity.
Format: functional

Row | Structure (SMILES) | viability at 10 µM
1 | Cc1cnc(Nc2ccc(N3CCN(C(=O)N(C)c4ccccc4)CC3)cc2)nc1Nc1cccc(S(=O)(=O)NC(C)(C)C)c1 | 44.5%
2 | Cc1cn(-c2cc(Nc3ncc(C)c(Nc4cccc(S(=O)(=O)NC(C)(C)C)c4)n3)cc(C(F)(F)F)c2)cn1 | 49.6%
3 | Cc1ccc(Nc2ncc(C)c(Nc3cccc(S(=O)(=O)NC(C)(C)C)c3)n2)cc1Nc1nc(-c2cccnc2)cs1 | 43.5%
4 | Cc1cnc(Nc2ccc(OCc3cccc(F)c3)c(Cl)c2)nc1Nc1cccc(S(=O)(=O)NC(C)(C)C)c1 | 96.1%
5 | Cc1cnc(Nc2ccc(N3CCN(C(=O)c4cccc(F)c4)CC3)cc2)nc1Nc1cccc(S(=O)(=O)NC(C)(C)C)c1 | 37.3%
6 | COc1cc(Nc2ncc(C)c(Nc3ccc(N4CCN(C)CC4)cc3)n2)cc(OC)c1OC | 39.9%
7 | COc1cc(Nc2ncc(C)c(Nc3cccc(S(=O)(=O)NC(C)(C)C)c3)n2)c(Cl)cc1Cl | 108%
8 | Cc1ccccc1NC(=O)N1CCN(c2ccc(Nc3ncc(C)c(Nc4cccc(S(=O)(=O)NC(C)(C)C)c4)n3)cc2)CC1 | 45%
9 | Cc1cnc(Nc2ccc(Oc3ccc(Cl)cc3)nc2)nc1Nc1cccc(S(=O)(=O)NC(C)(C)C)c1 | 87.7%
10 | Cc1cnc(Nc2ccc(N3CCN(C(=O)N4CCCC4)CC3)cc2)nc1Nc1cccc(S(=O)(=O)NC(C)(C)C)c1 | 43.1%
